Laboratory results as given in article PMC5923390, “Further New Diterpenoids as PTP1B Inhibitors from the Xisha Soft Coral Sinularia polydactyla” (Marine Drugs, 2018).
“And” between values parts separate entries of the source, which are not always exact repeats. Equal entries are not always repeated.

Target: T1, recombinant PTP1B catalytic domain (Homo sapiens, UniProt P18031)
T1 construct: Recombinant PTP1B catalytic domain was expressed and purified according to a previous report; made in house
T1 sequence (P18031 3-277 limits assumed): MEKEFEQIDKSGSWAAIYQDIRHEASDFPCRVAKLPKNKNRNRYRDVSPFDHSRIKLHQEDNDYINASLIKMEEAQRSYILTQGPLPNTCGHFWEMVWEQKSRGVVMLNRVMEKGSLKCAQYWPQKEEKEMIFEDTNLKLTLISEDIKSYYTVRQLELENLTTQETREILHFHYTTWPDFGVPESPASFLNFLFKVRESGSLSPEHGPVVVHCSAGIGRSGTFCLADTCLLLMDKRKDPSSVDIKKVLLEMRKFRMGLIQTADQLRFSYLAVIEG
Assay: PTP1B inhibitory activity assay (pNPP hydrolysis)
Type: biochemical
Conditions: for PTP1B inhibitory activity (in words): in vitro, pNPP hydrolysis; for IC50: pNPP 2 mmol/L, 30 nmol/L recombinant PTP1B, MOPs pH 6.5, 30 °C, absorbance 405 nm, read-out: IC50 against PTP1B
Procedure: Recombinant PTP1B catalytic domain was expressed and purified according to a previous report. The enzymatic activities of the PTP1B catalytic domain were determined at 30 °C by monitoring the hydrolysis of pNPP. The dephosphorylation of pNPP generated product pNP, which was monitored at an absorbance of 405 nm by the EnVision multi label plate reader (Perkin Elmer Life Sciences, Boston, MA). In an atypical 100 µL assay mixture containing 50 mmol/L 3-[N-morpholino] propanesulfonic acid (MOPs), pH 6.5, 2 mmol/L pNPP, and 30 nmol/L recombinant PTP1B, activities were continuously monitored and the initial rate of hydrolysis was determined using the early linear region of the enzymatic reaction kinetic curve. The IC50 was calculated with Prism 4 software (Graphpad, San Diego, CA).

SMILES	PTP1B inhibitory activity (in words)	IC50
C=C[C@@]1(C)CC[C@H](/C(C)=C/C=C/C(C)(C)OC)C[C@@H]1C(=C)C [Compound 5, lobatetraene]	inactive	
C=C[C@@]1(C)CC[C@H](/C(C)=C/C=C/C(C)(C)O)C[C@@H]1C(=C)C [Compound 6, fuscol]	inactive	
CC1=CC[C@@H](O)[C@@]2(C)CC[C@H](/C(C)=C/C=C/C(C)(C)O)C[C@H]12 [Compound 7]		75.5 µM and 72.4 µM
CC(=CC=CC(C)(C)O)C1CCC2(C)CCC=C(C)C2C1 (centres unmarked) [Compound 8, sinupol]	promising inhibitory activity	63.9 µM
C=C1CCC=C(C)C(OC(C)=O)C(OC(C)=O)C(C(C)C)=CC2C(C)=CCC12 (centres unmarked) [Compound 9, sinulacetate]	promising inhibitory activity	51.8 µM
CC1=CC=C(C(C)C)C(O)C(O)C(C)=CCCC(C)=CCC1 (centres unmarked) [Compound 10, sarcophytol B]	inactive	
